Values of other authors as cited in patent US20150099002A1, “MEANS AND METHODS FOR ENHANCING WEIGHT GAIN IN POULTRY” (Nutrinia Ltd., priority 2007, published 2015).

Tested on: Cobb male chicks
Conditions: through drinking water or feed, high amounts, at least 21 days

insulin: insulin provided to chicks through drinking water or feed in WO 2005/115473
weight gain compared to same feed without insulin: higher weight gain
